Test results reported in patent US20110275703A1, “SUBSTITUTED SPIROKETAL DERIVATIVES AND USE THEREOF AS THERAPEUTIC DRUG FOR DIABETES” (CHUGAI SEIYAKU KABUSHIKI KAISHA, priority 2007, published 2011).
Where two headings read alike, the source gives them in different places.

What was measured:
db/db mice = assay: Study for glucose lowering effect in db/db mouse; type: in vivo; conditions: for inhibition in vivo at 0.3 mg/kg: Mus musculus; for Percent reduction of blood glucose (%) 6 hours after administration / inhibition in vivo at 0.3 mg/kg: 6 hours
Procedure: Study for Glucose Lowering Effect in dB/dB Mouse
A study for glucose lowering effect was conducted using db/db mice (purchased from Clea Japan, Inc., male, 9 to 11 weeks old), type 2 diabetic model mice. On the day of the study, body weights and blood glucose levels were measured prior to the start of testing. Measurement of the blood glucose levels was performed using a simple blood glucose meter (manufactured by Bayer HealthCare, Dexter-Z II). The mice were allocated to some groups consisting of 5 mice each so that homogeneity of body weights or blood glucose levels among groups would be ensured. Blood collection was carried out by making an incision on the tip of the tail and taking the blood therefrom. On the day of the study, the test compounds were suspended in 0.5% carboxymethylcellulose solution (CMC solution), and the dosing solutions of which concentration was adjusted to either 0.3 mg/10 mL or 3 mg/10 mL were prepared. The dosing solutions were orally administered by gavage for mice in 10 mL/kg. To the control group, only a 0.5% CMC solution was orally administered in 10 mL/kg. Blood was collected prior to or sequentially after administration of test compounds by above method. The blood glucose levels were determined using a hexokinase method (AutoSera S GLU, manufactured by Daiichi Pure Chemicals Co., Ltd.). A percent reduction of blood glucose relative to control group at each time point after administration of test compounds was calculated by the following equation.
Percent reduction of blood glucose (%)={blood glucose level in the control group (mg/dL)-blood glucose level in the test compound group (mg/dL)}/blood glucose level in the control group (mg/dL)×100

human SGLT2 = biological target: T1, human SGLT2 (Homo sapiens, UniProt P31639); assay: Inhibitory activity against methyl-α-D-glucopyranoside uptake, CHO cells stably expressing human SGLT2; type: cell-based; conditions: inhibition of SGLT2, Table 2-1; read-out: IC50 value
T1 construct: expressed in transfected cells; host or cells: CHO-K1
T1 sequence (P31639 1-672): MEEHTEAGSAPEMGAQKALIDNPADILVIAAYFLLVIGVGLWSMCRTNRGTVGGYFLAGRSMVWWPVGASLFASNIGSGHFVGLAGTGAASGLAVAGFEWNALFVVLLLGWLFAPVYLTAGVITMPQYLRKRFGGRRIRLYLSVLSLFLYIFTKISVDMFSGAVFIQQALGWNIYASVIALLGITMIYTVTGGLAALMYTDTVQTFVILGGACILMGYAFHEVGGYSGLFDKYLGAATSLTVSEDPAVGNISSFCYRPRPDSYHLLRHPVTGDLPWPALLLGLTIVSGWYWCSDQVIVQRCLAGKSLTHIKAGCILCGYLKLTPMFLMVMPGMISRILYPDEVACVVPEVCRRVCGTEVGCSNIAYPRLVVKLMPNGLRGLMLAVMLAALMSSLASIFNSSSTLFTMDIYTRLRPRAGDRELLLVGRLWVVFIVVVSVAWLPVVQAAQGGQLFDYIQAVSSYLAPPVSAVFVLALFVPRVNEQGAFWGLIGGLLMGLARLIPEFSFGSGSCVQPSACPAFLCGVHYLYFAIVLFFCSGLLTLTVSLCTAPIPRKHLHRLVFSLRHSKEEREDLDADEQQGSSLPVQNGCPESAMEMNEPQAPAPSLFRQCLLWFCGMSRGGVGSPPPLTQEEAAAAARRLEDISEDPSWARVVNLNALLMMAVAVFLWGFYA
Excerpt: Evaluation of inhibitory activity against methyl-α-D-glucopyranoside uptake of human Na^+-glucose cotransporter (SGLT1 and SGLT2)
2) Construction of Human SGLT2 Expression Vector
Human SGLT2 cDNA was amplified by PCR with a cDNA library derived from human kidney (Clontech) as a template, synthetic DNA primers and KOD+ DNA Polymerase. The amplified cDNA was inserted into pcRII-Topo vector by using a Topo TA Cloning Dual Promoter kit. E. coli competent cells (TPO10) were transformed with the plasmid vector, cultured in LB medium containing ampicillin (50 mg/L) to grow ampicillin-resistant clones. The plasmid vector containing human SGLT2 cDNA was purified from the clone in a standard manner. Human SGLT2 cDNA added restriction enzyme recognition sites (Xho I at 5′-end, Hind III at 3′-end) was amplified by PCR with the plasmid vector as a template, synthetic DNA primers containing an additional restriction enzyme recognition site and KOD+ DNA Polymerase. This amplified cDNA was digested with Xho I and Hind III, and ligated into expression vector pcDNA3.1(−) digested with Xho I and Hind III by using a Rapid DNA Ligation kit. E. coli competent cells (DH5α) were transformed with the ligated expression vector and grown in ampicillin-containing LB medium. Human SGLT2 expression vector was purified from the ampicillin-resistant clone in a standard manner.
3) Establishment of Cell Lines Stably Expressing Human SGLT1 or Human SGLT2
The human SGLT1 expression vector or the human SGLT2 expression vector was digested with the restriction enzyme Pvu I and transfected into CHO-Kl cells with FuGENE (Roche Diagonostics). After the transfection, the cells were cultured at 37° C. in the presence of 5% CO2 for about 3 weeks in DMEM medium (Gibco) containing penicillin (50 U/mL, SIGMA), streptomycin (50 mg/L, SIGMA), geneticin (200 mg/L, Nacalai Tesque, Inc., Japan) and 20% fetal bovine serum to obtain geneticin-resistant clones. Among these clones, clones stably expressing human SGLT1 or human SGLT2 were selected by the evaluating the sodium-dependent uptake activity of sugar (methyl-α-D-glucopyranoside).
4) Evaluation of Inhibitory Activity Against methyl-α-D-glucopyranoside uptake
Cell lines stably expressing human SGLT1 or human SGLT2 CHO were seeded in 96-well culture plates at a density of 30000 to 40000 cells/well and cultured for 4 to 6 days. The medium in these plates was removed and replaced by 150 μL/well pretreatment buffer (i.e., a buffer containing 140 mM choline chloride, 2 mM potassium chloride, 1 mM calcium chloride, 1 mM magnesium chloride, 10 mM 2-[4-(2-hydroxyethyl)-1-piperazinyl]ethanesulfonic acid and tris(hydroxymethyl)aminomethane, pH 7.4), and the plates were incubated at 37° C. for 20 minutes. The pretreatment buffer in the plates was removed, replaced by 50 μL/well fresh pretreatment buffer, and the plates were incubated at 37° C. for 20 minutes. Methyl-α-D-(U—^14C)glucopyranoside (6.3 mL, Amersham Pharmacia Biotech, 200 mCi/L) was added to and mixed with 100 mL buffer (i.e., a buffer containing 140 mM sodium chloride, 2 mM potassium chloride, 1 mM calcium chloride, 1 mM magnesium chloride, 1 mM methyl-α-D-glucopyranoside, 10 mM [4-(2-hydroxyethyl)-1-piperazinyl]ethanesulfonic acid and tris(hydroxymethyl)aminomethane, pH 7.4), which was used as uptake buffer. Test compounds were dissolved into uptake buffer and these test compound solutions were used for evaluating inhibitory activity. Uptake buffer without a test compound was used as a control solution. Moreover, for use in measuring baseline uptake in the absence of sodium, sodium-free solution was prepared in the same manner to contain 140 mM choline chloride instead of sodium chloride. The pretreatment buffer was removed from each well of the plates and replaced by 35 μL/well test compound solutions, control solution or sodium-free solution, and the plates were incubated at 37° C. for 45 minutes. […]

[1] = oral, 0.3 mg/kg, relative to control group, Table 3-2
[2] = oral, 3.0 mg/kg, relative to control group, Table 3-2
[3] = po, 0.3 mg/kg administration, read-out: reduction of blood glucose 6 hours after administration
[4] = oral, 0.3 mg/kg, relative to control group, Table 3-1, read-out: Percent reduction of blood glucose (%) 6 hours after administration

For `CC(C)c1ccc(Cc2ccc3c(c2)C2(OC3)OC(CO)C(O)C(O)C2O)cc1` (stereo not drawn) [Comparative Compound 2, 1,1-anhydro-1-C-[5-(4-isopropylphenyl)methyl-2-(hydroxymethyl)phenyl]-β-glucopyranose, reference compound], the “Percent reduction of blood glucose (%) 6 hours after administration” value (db/db mice; oral, 0.3 mg/kg, relative to control group, Table 3-1) was 16%, the “Percent reduction of blood glucose (%) 6 hours after administration” value (db/db mice; [1]) was 16% and the “Percent reduction of blood glucose (%) 24 hours after administration” value (db/db mice; [1]) was 4.9%. For the same compound, the “Percent reduction of blood glucose (%) 6 hours after administration” value (db/db mice; [2]) was 53% and the “Percent reduction of blood glucose (%) 24 hours after administration” value (db/db mice; [2]) was 13%.
In the case of `OC[C@H]1O[C@]2(OCc3cc(Cl)c(Cc4cccs4)cc32)[C@H](O)[C@@H](O)[C@@H]1O` [Example 30, (1S,3′R,4′S,5′S,6′R)-5-chloro-3′,4′,5′,6′-tetrahydro-6′-(hydroxymethyl)-6-[(thiophen-2-yl)methyl]-spiro[isobenzofuran-1(3H),2′-[2H]pyran]-3′,4′,5′-triol], the inhibition in vivo at 0.3 mg/kg (db/db mice; [3]) is reported as ≥ 25% and the IC50 (human SGLT2) is reported as 1.3 nM.
For `C#Cc1cc2c(cc1Cc1ccc(CC)cc1)[C@]1(OC2)O[C@H](CO)[C@@H](O)[C@H](O)[C@H]1O` [Example 31, (1S,3′R,4′S,5′S,6′R)-6-[(4-ethylphenyl)methyl]-5-ethynyl-3′,4′,5′,6′-tetrahydro-6′-(hydroxymethyl)-spiro[isobenzofuran-1(3H),2′-[2H]pyran]-3′,4′,5′-triol], the inhibition in vivo at 0.3 mg/kg (db/db mice; [3]) was ≥ 25% and the IC50 (human SGLT2) was 2.1 nM.
`Cc1ccc(Cc2cc3c(cc2Cl)CO[C@]32O[C@H](CO)[C@@H](O)[C@H](O)[C@H]2O)cc1` [Example 2, (1S,3′R,4′S,5′S,6′R)-5-chloro-3′,4′,5′,6′-tetrahydro-6′-(hydroxymethyl)-6-[(4-methylphenyl)methyl]-spiro[isobenzofuran-1(3H),2′-[2H]pyran]-3′,4′,5′-triol] showed an IC50 (human SGLT2) of 1.2 nM.
Compound `CC(=O)c1ccc(Cc2cc3c(cc2Cl)CO[C@]32O[C@H](CO)[C@@H](O)[C@H](O)[C@H]2O)cc1` [Example 12, (1S,3′R,4′S,5′S,6′R)-6-[(4-acetylphenyl)methyl]-5-chloro-3′,4′,5′,6′-tetrahydro-6′-(hydroxymethyl)-spiro[isobenzofuran-1(3H),2′-[2H]pyran]-3′,4′,5′-triol] has an inhibition in vivo at 0.3 mg/kg (db/db mice; [4]) of 27% and an IC50 (human SGLT2) of 1.5 nM.
`CCOc1ccc(Cc2cc3c(cc2F)CO[C@]32O[C@H](CO)[C@@H](O)[C@H](O)[C@H]2O)cc1` [Example 17, (1S,3′R,4′S,5′S,6′R)-6-[(4-ethoxyphenyl)methyl]-5-fluoro-3′,4′,5′,6′-tetrahydro-6′-(hydroxymethyl)-spiro[isobenzofuran-1(3H),2′-[2H]pyran]-3′,4′,5′-triol] gave an inhibition in vivo at 0.3 mg/kg (db/db mice; [4]) of 33% and an IC50 (human SGLT2) of 2.6 nM.
For `OC[C@H]1O[C@]2(OCc3cc(Cl)c(Cc4ccc(OC(F)(F)F)cc4)cc32)[C@H](O)[C@@H](O)[C@@H]1O` [Example 11, (1S,3′R,4′S,5′S,6′R)-5-chloro-6-[(4-trifluoromethoxyphenyl)methyl]-3′,4′,5′,6′-tetrahydro-6′-(hydroxymethyl)-spiro[isobenzofuran-1(3H),2′-[2H]pyran]-3′,4′,5′-triol], the inhibition in vivo at 0.3 mg/kg (db/db mice; [4]) was 45% and the IC50 (human SGLT2) was 1.9 nM.
In the case of `Cc1cc2c(cc1Cc1ccc(C(F)(F)F)cc1)[C@]1(OC2)O[C@H](CO)[C@@H](O)[C@H](O)[C@H]1O` [Example 26, (1S,3′R,4′S,5′S,6′R)-6-[(4-trifluoromethylphenyl)methyl]-3′,4′,5′,6′-tetrahydro-6′-(hydroxymethyl)-5-methyl-spiro[isobenzofuran-1(3H),2′-[2H]pyran]-3′,4′,5′-triol], the inhibition in vivo at 0.3 mg/kg (db/db mice; [3]) is reported as ≥ 25% and the IC50 (human SGLT2) is reported as 2.8 nM.
With `CSc1ccc(Cc2cc3c(cc2Cl)CO[C@]32O[C@H](CO)[C@@H](O)[C@H](O)[C@H]2O)cc1` [Example 3, (1S,3′R,4′S,5′S,6′R)-5-chloro-3′,4′,5′,6′-tetrahydro-6′-(hydroxymethyl)-6-[(4-(methylthio)phenyl)methyl]-spiro[isobenzofuran-1(3H),2′-[2H]pyran]-3′,4′,5′-triol] the IC50 (human SGLT2) was 1.3 nM.
`CCc1ccc(Cc2cc3c(cc2Cl)CO[C@]32O[C@H](CO)[C@@H](O)[C@H](O)[C@H]2O)s1` [Example 29, (1S,3′R,4′S,5′S,6′R)-5-chloro-6-[(5-ethylthiophen-2-yl)methyl]-3′,4′,5′,6′-tetrahydro-6′-(hydroxymethyl)-spiro[isobenzofuran-1(3H),2′-[2H]pyran]-3′,4′,5′-triol] showed an IC50 (human SGLT2) of 1.5 nM.
Compound `OC[C@H]1O[C@]2(OCc3cc(Cl)c(Cc4cc5ccccc5s4)cc32)[C@H](O)[C@@H](O)[C@@H]1O` [Example 28, (1S,3′R,4′S,5′S,6′R)-6-[(benzothiophen-2-yl)methyl]-5-chloro-3′,4′,5′,6′-tetrahydro-6′-(hydroxymethyl)-spiro[isobenzofuran-1(3H),2′-[2H]pyran]-3′,4′,5′-triol] has an IC50 (human SGLT2) of 1.4 nM.
`COc1ccc(Cc2cc3c(cc2Cl)CO[C@]32O[C@H](CO)[C@@H](O)[C@H](O)[C@H]2O)cc1` [Example 4, (1S,3′R,4′S,5′S,6′R)-5-chloro-3′,4′,5′,6′-tetrahydro-6′-(hydroxymethyl)-6-[(4-methoxyphenyl)methyl]-spiro[isobenzofuran-1(3H),2′-[2H]pyran]-3′,4′,5′-triol] showed an IC50 (human SGLT2) of 1 nM.
